Experimental data published in patent publication US6525001B1, “Substituted pyrimidine and pyridine herbicides” (Mid-American Commercialization Corporation, priority 1997, dated 2003).

Tests used:
Format in all cases: in vivo
[1] = test system: barnyardgrass (Echinochloa crus-galli); experiment: Test C
[2] = test system: common ragweed (Ambrosia elatior); experiment: Test C
corn (Zea mays) = experiment: Test C; set-up: key: 0 was no effect; 100 was complete control
[3] = test system: cotton (Gossypium hirsutum); experiment: Test C
[4] = test system: fall panicum (Panicum dichotomiflorum); experiment: Test C; set-up: key: 0 was no effect; 100 was complete control
[5] = test system: field bindweed (Convolvulus arvensis); experiment: Test C; set-up: key: 0 was no effect; 100 was complete control
[6] = test system: giant foxtail (Setaria faberii); experiment: Test C; set-up: key: 0 was no effect; 100 was complete control
[7] = test system: lambsquarters (Chenopodium album); experiment: Test C; set-up: key: 0 was no effect; 100 was complete control
[8] = test system: large crabgrass (Digitaria sanguinalis); experiment: Test C; set-up: key: 0 was no effect; 100 was complete control
[9] = test system: surinam grass (Brachiaria decumbens); experiment: Test C
[10] = test system: velvetleaf (Abutilon theophrasti); experiment: Test C; set-up: key: 0 was no effect; 100 was complete control
[11] = test system: common groundsel (Senecio vulgaris); experiment: Test E pre-/postemergence/post directed
Outline: (§1)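 Injury scored visually on a 0–100 scale (100 = complete control) 13 to 21 days after treatment. Test chemicals, formulated with surfactant in non-phytotoxic solvent, were applied to soil within one day of planting, to plants at two to four leaves (three to twenty cm), or as directed spray at plant base.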

[12] = test system: itchgrass (Rottboellia exaltata); experiment: Test E pre-/postemergence/post directed
Outline: as §1

[13] = test system: pitted morningglory (Ipomoea lacunosa); experiment: Test E pre-/postemergence/post directed
Outline: as §1

[14] = test system: surinam grass (Brachiaria decumbens); experiment: Test E pre-/postemergence/post directed
Outline: as §1

SMILES: Cc1cnc(-c2ccc(C(F)(F)F)cc2)nc1Cn1ccc(C(F)(F)F)n1 [compound 9]
- Plant response rating, Barnyardgrass ([1]; POSTEMERGENCE, Rate 35 g/ha): 10
- Plant response rating, Barnyardgrass ([1]; POSTEMERGENCE, Rate 70 g/ha): 25
- Plant response rating, Barnyardgrass ([1]; POSTEMERGENCE, Rate 140 g/ha): 25
- Plant response rating, Barnyardgrass ([1]; PREEMERGENCE, Rate 35 g/ha): 10
- Plant response rating, Barnyardgrass ([1]; PREEMERGENCE, Rate 70 g/ha): 50
- Plant response rating, Barnyardgrass ([1]; PREEMERGENCE, Rate 140 g/ha): 50
- Plant response rating, Common ragweed ([2]; POSTEMERGENCE, Rate 70 g/ha): 30
- Plant response rating, Common ragweed ([2]; POSTEMERGENCE, Rate 140 g/ha): 10
- Plant response rating, Common ragweed ([2]; PREEMERGENCE, Rate 35 g/ha): 80
- Plant response rating, Common ragweed ([2]; PREEMERGENCE, Rate 70 g/ha): 95
- Plant response rating, Common ragweed ([2]; PREEMERGENCE, Rate 140 g/ha): 75
- Plant response rating, Corn (corn (Zea mays); POSTEMERGENCE, Rate 35 g/ha): 10
- Plant response rating, Corn (corn (Zea mays); POSTEMERGENCE, Rate 70 g/ha): 15
- Plant response rating, Corn (corn (Zea mays); POSTEMERGENCE, Rate 140 g/ha): 15
- Plant response rating, Corn (corn (Zea mays); PREEMERGENCE, Rate 35 g/ha): 0
- Plant response rating, Corn (corn (Zea mays); PREEMERGENCE, Rate 70 g/ha): 5
- Plant response rating, Corn (corn (Zea mays); PREEMERGENCE, Rate 140 g/ha): 10
- Plant response rating, Cotton ([3]; POSTEMERGENCE, Rate 35 g/ha): 70
- Plant response rating, Cotton ([3]; POSTEMERGENCE, Rate 70 g/ha): 80
- Plant response rating, Cotton ([3]; POSTEMERGENCE, Rate 140 g/ha): 90
- Plant response rating, Cotton ([3]; PREEMERGENCE, Rate 35 g/ha): 10
- Plant response rating, Cotton ([3]; PREEMERGENCE, Rate 70 g/ha): 35
- Plant response rating, Cotton ([3]; PREEMERGENCE, Rate 140 g/ha): 50
- Plant response rating, Fall panicum ([4]; POSTEMERGENCE, Rate 35 g/ha): 5
- Plant response rating, Fall panicum ([4]; POSTEMERGENCE, Rate 70 g/ha): 20
- Plant response rating, Fall panicum ([4]; POSTEMERGENCE, Rate 140 g/ha): 30
- Plant response rating, Fall panicum ([4]; PREEMERGENCE, Rate 35 g/ha): 85
- Plant response rating, Fall panicum ([4]; PREEMERGENCE, Rate 70 g/ha): 90
- Plant response rating, Fall panicum ([4]; PREEMERGENCE, Rate 140 g/ha): 100
- Plant response rating, Field bindweed ([5]; POSTEMERGENCE, Rate 35 g/ha): 60
- Plant response rating, Field bindweed ([5]; POSTEMERGENCE, Rate 70 g/ha): 70
- Plant response rating, Field bindweed ([5]; POSTEMERGENCE, Rate 140 g/ha): 80
- Plant response rating, Field bindweed ([5]; PREEMERGENCE, Rate 35 g/ha): 50
- Plant response rating, Field bindweed ([5]; PREEMERGENCE, Rate 70 g/ha): 100
- Plant response rating, Field bindweed ([5]; PREEMERGENCE, Rate 140 g/ha): 90
- Plant response rating, Giant foxtail ([6]; POSTEMERGENCE, Rate 35 g/ha): 15
- Plant response rating, Giant foxtail ([6]; POSTEMERGENCE, Rate 70 g/ha): 15
- Plant response rating, Giant foxtail ([6]; POSTEMERGENCE, Rate 140 g/ha): 30
- Plant response rating, Giant foxtail ([6]; PREEMERGENCE, Rate 35 g/ha): 90
- Plant response rating, Giant foxtail ([6]; PREEMERGENCE, Rate 70 g/ha): 100
- Plant response rating, Giant foxtail ([6]; PREEMERGENCE, Rate 140 g/ha): 100
- Plant response rating, Lambsquarters ([7]; POSTEMERGENCE, Rate 35 g/ha): 75
- Plant response rating, Lambsquarters ([7]; POSTEMERGENCE, Rate 70 g/ha): 80
- Plant response rating, Lambsquarters ([7]; POSTEMERGENCE, Rate 140 g/ha): 100
- Plant response rating, Lambsquarters ([7]; PREEMERGENCE, Rate 35 g/ha): 95
- Plant response rating, Lambsquarters ([7]; PREEMERGENCE, Rate 70 g/ha): 100
- Plant response rating, Lambsquarters ([7]; PREEMERGENCE, Rate 140 g/ha): 100
- Plant response rating, Large crabgrass ([8]; POSTEMERGENCE, Rate 35 g/ha): 20
- Plant response rating, Large crabgrass ([8]; POSTEMERGENCE, Rate 70 g/ha): 40
- Plant response rating, Large crabgrass ([8]; POSTEMERGENCE, Rate 140 g/ha): 50
- Plant response rating, Large crabgrass ([8]; PREEMERGENCE, Rate 35 g/ha): 95
- Plant response rating, Large crabgrass ([8]; PREEMERGENCE, Rate 70 g/ha): 100
- Plant response rating, Large crabgrass ([8]; PREEMERGENCE, Rate 140 g/ha): 100
- Plant response rating, Surinam grass ([9]; POSTEMERGENCE, Rate 35 g/ha): 5
- Plant response rating, Surinam grass ([9]; POSTEMERGENCE, Rate 70 g/ha): 5
- Plant response rating, Surinam grass ([9]; POSTEMERGENCE, Rate 140 g/ha): 20
- Plant response rating, Surinam grass ([9]; PREEMERGENCE, Rate 35 g/ha): 35
- Plant response rating, Surinam grass ([9]; PREEMERGENCE, Rate 70 g/ha): 80
- Plant response rating, Surinam grass ([9]; PREEMERGENCE, Rate 140 g/ha): 90
- Plant response rating, Velvetleaf ([10]; POSTEMERGENCE, Rate 35 g/ha): 10
- Plant response rating, Velvetleaf ([10]; POSTEMERGENCE, Rate 70 g/ha): 70
- Plant response rating, Velvetleaf ([10]; POSTEMERGENCE, Rate 140 g/ha): 90
- Plant response rating, Velvetleaf ([10]; PREEMERGENCE, Rate 35 g/ha): 75
- Plant response rating, Velvetleaf ([10]; PREEMERGENCE, Rate 70 g/ha): 95
- Plant response rating, Velvetleaf ([10]; PREEMERGENCE, Rate 140 g/ha): 100
- Plant response rating, Com. groundsel ([11]; POSTEMERGENCE, Rate 125 g/ha): 25
- Plant response rating, Com. groundsel ([11]; POSTEMERGENCE, Rate 250 g/ha): 30
- Plant response rating, Com. groundsel ([11]; PREEMERGENCE, Rate 32 g/ha): 98
- Plant response rating, Itchgrass ([12]; POSTEMERGENCE, Rate 125 g/ha): 30
- Plant response rating, Itchgrass ([12]; POSTEMERGENCE, Rate 250 g/ha): 30
- Plant response rating, Itchgrass ([12]; PREEMERGENCE, Rate 64 g/ha): 85
- Plant response rating, P. morninglory ([13]; POSTEMERGENCE, Rate 125 g/ha): 40
- Plant response rating, P. morninglory ([13]; POSTEMERGENCE, Rate 250 g/ha): 50
- Plant response rating, P. morninglory ([13]; PREEMERGENCE, Rate 32 g/ha): 45
- Plant response rating, P. morninglory ([13]; PREEMERGENCE, Rate 64 g/ha): 60
- Plant response rating, P. morninglory ([13]; PREEMERGENCE, Rate 125 g/ha): 75
- Plant response rating, Surinam grass ([14]; POSTEMERGENCE, Rate 125 g/ha): 10
- Plant response rating, Surinam grass ([14]; POSTEMERGENCE, Rate 250 g/ha): 10
- Plant response rating, Surinam grass ([14]; PREEMERGENCE, Rate 64 g/ha): 10
- Plant response rating, Surinam grass ([14]; PREEMERGENCE, Rate 125 g/ha): 20
